Assay results as given in patent publication US20170152226A1, “FUNCTIONALISED AND SUBSTITUTED INDOLES AS ANTI-CANCER AGENTS” (Novogen Ltd., priority 2014, published 2017).
pIC50: −log10 of the molar value. Like-named read-outs stand apart in the source and are kept apart here.

Key:
Experiment in all cases: Anti-proliferative activity, cell-titre luminescent viability assay
Assay type in all cases: cell-based
[1] = tested on: A549; conditions: read-out: IC50 Lung (NSLC) A549
Description: (§1) The ability of compounds 3501-3540 and 3542-3545 to inhibit the proliferation of cancer cells representative of neuroblastoma, melanoma, prostate cancer, colorectal cancer, non-small cell lung carcinoma, and triple negative breast cancer was assessed. Briefly, a pre-determined number of cells as calculated from cell growth assays for each of the cell lines employed were seeded into their respective culture medium (using ATCC culture parameters—http://www.atcc.org) and cultured for 24 hours at 37° C. and 5% CO2 in 96-well culture plates. Once attached, each cell line was then exposed to increasing concentrations of each respective analogue (0.03, 0.3, 3 and 30 μM for compounds in Table 1; 0.1, 0.3, 1, 3, 10 and 30 μM for compounds in Table 2), cultured for a further 72 hours and exposed to cell-titre luminescent reagent (100 μL/well) for a further 30 min) to assess for cell viability. Luminescence was captured using an EnVision multilabel reader and the data for each analogue concentration was normalized, as a percentage, to the no treatment control. For compounds 3501, 3503, 3505-08, 3512-18, 3520, 3522-24 and 3531-36, semi-log plots of Percent of Control versus concentration were prepared and IC50 determined using linear regression analysis. For compounds 3502, 3504, 3509-11, 3519, 3521, 3525-30, 3537-40 and 3542-45, cell viability was normalized to control (vehicle alone) and dose-response curves, and half maximal effective concentration (EC50) values were determined using Graph Pad Prism 6 (nonlinear regression sigmoidal dose-response variable slope).

[2] = tested on: CaCo2; conditions: read-out: IC50 Colorectal CaCo2
Description: as §1

[3] = tested on: DU145; conditions: read-out: IC50 Prostate DU145
Description: as §1

[4] = tested on: MDA-MB-231; conditions: read-out: IC50 Breast MDA-MB-231
Description: as §1

[5] = tested on: PC3; conditions: read-out: IC50 Prostate PC3
Description: as §1

[6] = tested on: SK-Mel-28; conditions: 72 hours, read-out: IC50 Melanoma SK-Mel-28
Description: as §1

[7] = tested on: SK-N-SH; conditions: read-out: IC50 Neuroblastoma SK-N-SH
Description: as §1

[8] = 72 hours, 0.03, 0.3, 3 and 30 μM, linear regression of semi-log plots
[9] = Homo sapiens, A549, 72 h, 0.1, 0.3, 1, 3, 10 and 30 μM, nonlinear regression sigmoidal dose-response (EC50)
[10] = Homo sapiens, Caco-2, 72 h, 0.1, 0.3, 1, 3, 10 and 30 μM, nonlinear regression sigmoidal dose-response (EC50)
[11] = Homo sapiens, DU-145, 72 h, 0.1, 0.3, 1, 3, 10 and 30 μM, nonlinear regression sigmoidal dose-response (EC50)
[12] = Homo sapiens, MDA-MB-231, 72 h, 0.1, 0.3, 1, 3, 10 and 30 μM, nonlinear regression sigmoidal dose-response (EC50)
[13] = Homo sapiens, PC-3, 72 h, 0.1, 0.3, 1, 3, 10 and 30 μM, nonlinear regression sigmoidal dose-response (EC50)
[14] = Homo sapiens, SK-MEL-28, 0.1, 0.3, 1, 3, 10 and 30 μM, nonlinear regression sigmoidal dose-response (EC50)
[15] = Homo sapiens, SK-N-SH, 72 h, 0.1, 0.3, 1, 3, 10 and 30 μM, nonlinear regression sigmoidal dose-response (EC50)

SMILES | pIC50 [1, 9] | pIC50 [2, 10] | pIC50 [3, 11] | pIC50 [4, 12] | pIC50 [5, 13] | pIC50 [6, 14] | pIC50 [7, 15] | further results
COc1cccc(CCN2CCN(C(=O)c3ccc(Nc4ccc5c(c4)c(C)c(C)n5CCCN4CCN(C)CC4)cc3)CC2)c1 [Compound 3535, (4-((2,3-dimethyl-1-(3-(4-methylpiperazin-1-yl)propyl)-1H-indol-5-yl)amino)phenyl)(4-(3-methoxyphenethyl)piperazin-1-yl)methanone] | – | – | – | – | – | – | – | pIC50 ([1]; Homo sapiens, A549, 72 h, 0.03, 0.3, 3 and 30 μM, linear regression of semi-log plots): 5.57; pIC50 ([2]; Homo sapiens, Caco-2, 72 h, 0.03, 0.3, 3 and 30 μM, linear regression of semi-log plots): 5.52; pIC50 ([3]; Homo sapiens, DU-145, 72 h, 0.03, 0.3, 3 and 30 μM, linear regression of semi-log plots): 5.42; pIC50 ([4]; Homo sapiens, MDA-MB-231, 72 h, 0.03, 0.3, 3 and 30 μM, linear regression of semi-log plots): 5.59; pIC50 ([5]; Homo sapiens, PC-3, 72 h, 0.03, 0.3, 3 and 30 μM, linear regression of semi-log plots): 5.43; pIC50 ([6]; Homo sapiens, SK-MEL-28, 0.03, 0.3, 3 and 30 μM, linear regression of semi-log plots): 5.48; pIC50 ([7]; Homo sapiens, SK-N-SH, 72 h, 0.03, 0.3, 3 and 30 μM, linear regression of semi-log plots): 5.55
COc1ccc(CCN2CCN(C(=O)c3ccc(Nc4ccc5c(c4)c(C)c(C)n5CCCN4CCN(C)CC4)cc3)CC2)cc1 [Compound 3536, (4-((2,3-dimethyl-1-(3-(4-methylpiperazin-1-yl)propyl)-1H-indol-5-yl)amino)phenyl)(4-(4-methoxyphenethyl)piperazin-1-yl)methanone] | – | – | – | – | – | – | – | pIC50 [1, 8]: 5.51; pIC50 [2, 8]: 4.89; pIC50 [3, 8]: 5.44; pIC50 [4, 8]: 5.60; pIC50 [5, 8]: 5.37; pIC50 ([6]; 0.03, 0.3, 3 and 30 μM, linear regression of semi-log plots): 5.57; pIC50 [7, 8]: 5.54
Cc1c(C)n(CCCN2CCN(C)CC2)c2ccc(Cc3cccc(C(=O)N4CCN(CCc5ccc6ccccc6c5)CC4)c3)cc12 [Compound 3537, (3-((2,3-dimethyl-1-(3-(4-methylpiperazin-1-yl)propyl)-1H-indol-5-yl)methyl)phenyl)(4-(2-(naphthalen-2-yl)ethyl)piperazin-1-yl)methanone] | 5.44 | 5.30 | 5.24 | 5.32 | 5.10 | 5.32 | 5.38 | –
Cc1c(C)n(CCCN2CCN(C)CC2)c2ccc(Cc3cccc(C(=O)N4CCN(CCc5cccc6ccccc56)CC4)c3)cc12 [Compound 3539, (3-((2,3-dimethyl-1-(3-(4-methylpiperazin-1-yl)propyl)-1H-indol-5-yl)methyl)phenyl)(4-(2-(naphthalen-1-yl)ethyl)piperazin-1-yl)methanone] | 5.41 | 5.34 | 5.41 | 5.55 | 5.52 | 5.66 | 5.77 | –
Cc1c(C)n(CCCN2CCN(C)CC2)c2ccc(Cc3ccc(C(=O)N4CCN(CCc5ccc6ccccc6c5)CC4)cc3)cc12 [Compound 3542, (4-((2,3-dimethyl-1-(3-(4-methylpiperazin-1-yl)propyl)-1H-indol-5-yl)methyl)phenyl) (4-(2-(naphthalen-2-yl)ethyl)piperazin-1-yl)methanone] | 5.51 | 5.41 | 5.41 | 5.55 | 5.44 | 5.85 | 5.80 | –

Second part, led by results:

pIC50 [1, 9] | pIC50 [2, 10] | pIC50 [3, 11] | pIC50 [4, 12] | pIC50 [5, 13] | pIC50 [6, 14] | pIC50 [7, 15] | SMILES | further results
5.30 | 5.40 | 5.34 | 5.64 | 5.64 | 5.72 | 5.77 | COc1ccc2cccc(CCN3CCN(C(=O)c4cccc(Cc5ccc6c(c5)c(C)c(C)n6CCCN5CCN(C)CC5)c4)CC3)c2c1 [Compound 3540, (3-((2,3-dimethyl-1-(3-(4-methylpiperazin-1-yl)propyl)-1H-indol-5-yl)methyl)phenyl)(4-(2-(7-methoxynaphthalen-1-yl)ethyl)piperazin-1-yl)methanone] | –
5.82 | 5.82 | 5.77 | 5.89 | 5.74 | 5.70 | 5.80 | COc1ccc2cc(CCN3CCN(C(=O)c4ccc(Cc5ccc6c(c5)c(C)c(C)n6CCCN5CCN(C)CC5)cc4)CC3)ccc2c1 [Compound 3543, (4-((2,3-dimethyl-1-(3-(4-methylpiperazin-1-yl)propyl)-1H-indol-5-yl)methyl)phenyl)(4-(2-(6-methoxynaphthalen-2-yl)ethyl)piperazin-1-yl)methanone] | –
5.24 | 4.87 | 5.05 | 5.09 | 5.09 | 5.14 | 5.15 | Cc1c(C)n(CCCN2CCN(C)CC2)c2ccc(Cc3ccc(C(=O)N4CCN(CCc5cccc6ccccc56)CC4)cc3)cc12 [Compound 3544, (4-((2,3-dimethyl-1-(3-(4-methylpiperazin-1-yl)propyl)-1H-indol-5-yl)methyl)phenyl)(4-(2-(naphthalen-1-yl)ethyl)piperazin-1-yl)methanone] | –
5.38 | 5.51 | 5.44 | 5.64 | 5.52 | 5.49 | 5.68 | COc1ccc2cccc(CCN3CCN(C(=O)c4ccc(Cc5ccc6c(c5)c(C)c(C)n6CCCN5CCN(C)CC5)cc4)CC3)c2c1 [Compound 3545, (4-((2,3-dimethyl-1-(3-(4-methylpiperazin-1-yl)propyl)-1H-indol-5-yl)methyl)phenyl)(4-(2-(7-methoxynaphthalen-1-yl)ethyl)piperazin-1-yl)methanone] | –
